Laboratory results: patent US6908907B2, “Prevention and treatment of tumor growth, metastasis, and thromboembolic complications in cancer patients” (priority 2002, dated 2005)

Legend:
[1] = test system: colon carcinoma (HCT-116); conditions: CAM model; cited from earlier work
[2] = test system: endothelial cell tube formation; conditions: concentration-dependent; cited from earlier work
B16 melanoma = B16 melanoma injectable model of experimental lung metastasis; type: in vivo, mice; conditions: 700 ng i.v. 5 minutes prior to tumor cell injection
Excerpt: (§1) Tinzaparin is a low molecular weight heparin that is produced by heparinase depolymerization of unfractionated heparin allowing for its relatively high sulfate to carboxylate ratio. Beyond its potent plasmatic effects on ATIII-dependent coagulation factors, Tinzaparin is a very effective LMWH in causing the release of TFPI from the endothelial cells, the natural inhibitor of tissue factor pro-coagulant and non-coagulant effects. The present study was undertaken to investigate the effect of the LMWH, Tinzaparin as well as recombinant TFPI on experimental lung metastasis. […] In a second experimental group, in addition to the initial (pre-tumor cell) dose, subcutaneous Tinzaparin (10 mg/kg) was administered daily for 14 days at which time lung seeding was assessed. In the latter group, lung tumor formation was reduced by 96% (P<0.001). […] In order to determine the anticoagulant activity of Tinzaparin, 4 hrs after a single subcutaneous dose, whole blood re-calcification was measured using a Sonoclot Analyzer. Tinzaparin (10 mg/kg S.C.) prolonged the clotting time 4 fold. Furthermore, measuring the platelet count (a sensitive marker of intravascular coagulation) before and 15 minutes determined the effect of Tinzaparin on tumor cell-induced clotting activation in vivo after tumor cell injection in control and Tinzaparin-treated animals. […]

[3] = test system: tumor cell-induced thrombocytopenia; experiment: Tumor cell-induced clotting activation in vivo (platelet count); parameters: species or system mice; conditions: 700 ng i.v. 5 minutes prior to tumor cell injection
Excerpt: as §1

Q: Which results are given for “r-TFPI: recombinant tissue factor pathway inhibitor”?
A: inhibition of colon or lung carcinoma-induced angiogenesis, tumor growth and regression [1]: significant inhibition; effect on endothelial cell tube formation [2]: significant and comparable inhibitory effects; reduction of B16 lung metastasis (B16 melanoma): 85%; effect on tumor cell induced thrombocytopenia [3]: abolished tumor cell induced thrombocytopenia
